For the test, the system named is Wnt activity (Sp5-Luc reporter, SW480 colon carcinoma cells). Put plainly: Screening assay for Wnt activity: Sp5-Luc reporter gene assay in SW480 cells. Format: cell-based. Conditions: Homo sapiens, 42 h incubation, luminescence. An excerpt: The screening assay for Wnt activity is described as follows. Reporter cell lines can be generated by stably transducing cancer cell lines (e.g., colon cancer) or primary cells (e.g., IEC-6 intestinal cells) with a lentiviral construct that includes a Wnt-responsive promoter driving expression of the firefly luciferase gene.
SW480 colon carcinoma cells were transduced with a lentiviral vector expressing luciferase with a human Sp5 promoter consisting of a sequence of eight TCF/LEF binding sites. SW480 cells stably expressing the Sp5-Luc reporter gene and a hygromycin resistance gene were selected by treatment with 150 μg/ml of hygromycin for 7 days. These stably transduced SW480 cells were expanded in cell culture and used for all further screening activities. For Sp5-Luc reporter gene assays, the cells were plated at 10,000 cells/well in 96-well plates with growth medium containing 10% fetal calf serum and incubated overnight at 37° C. and 5% CO2. Each compound was dissolved in DMSO as a 10 mM stock in standard j-vials and used to prepare compound source plates in dose-response format with 3-fold serial dilutions and a 10 mM top concentration. Compound transfer from serially diluted source plates to assay plates containing the cells was accomplished using a pintool (Multimek 96, Beckman equipped with V&P Scientific FP1S50H pins) based liquid handling protocol. This protocol used a slotted pin to transfer 50 nl of compound from a source plate well to an assay plate well containing 50 μl of cells in growth medium. […] Control wells received 50 nl of DMSO treatment for normalization and calculating IC50 values. The treated cells were incubated at 37° C. and 5% CO2 for an additional forty-two hours. Following incubation, the growth medium was removed and 50 μl of BrightGlo luminescence reagent (Promega) was added to each well of the 96-well assay plates. The plates were placed on an orbital shaker for 5 min and then luminescence was quantified on the Victor3 (Perkin Elmer) plate reader. Readings were normalized to DMSO only treated cells, and normalized activities were utilized for IC50 calculations using the dose-response log (inhibitor) vs. response-variable slope (four parameters) nonlinear regression feature available in GraphPad Prism 5.0 or 6.0.
(Reporter assays use an easily measured gene product as a stand-in for the process of interest.)
Usually IC50 stands for the concentration at which inhibition is half-maximal. A lower IC50 goes with greater potency in that assay. With `CN(C)Cc1cncc(-c2cc3c(-c4nc5c(-c6ccsc6)nccc5[nH]4)n[nH]c3cc2F)c1` [Compound 1132, 1-(5-(6-Fluoro-3-(4-(thiophen-3-yl)-1H-imidazo[4,5-c]pyridin-2-yl)-1H-indazol-5-yl)pyridin-3-yl)-N,N-dimethylmethanamine], the 50% inhibitory concentration (IC50) was found to be 3680 nM.
Turning to `CC(C)CC(=O)Nc1cncc(-c2ccc3[nH]nc(-c4nc5c(-c6cc(O)cc(F)c6)nccc5[nH]4)c3c2)c1` [Compound 2164, N-(5-(3-(4-(3-Fluoro-5-hydroxyphenyl)-1H-imidazo[4,5-c]pyridin-2-yl)-1H-indazol-5-yl)pyridin-3-yl)-3-methylbutanamide], the IC50 came out at 35 nM.
The figure for `CN1CCN(c2nccc3[nH]c(-c4n[nH]c5ccc(-c6cccnc6)cc45)nc23)CC1` [Compound 212, 4-(4-Methylpiperazin-1-yl)-2-(5-(pyridin-3-yl)-1H-indazol-3-yl)-1H-imidazo [4,5-c]pyridine] is 65 nM; for `CN(C)Cc1cncc(-c2cc(F)c3[nH]nc(-c4nc5c(-c6ccsc6)nccc5[nH]4)c3c2)c1` [Compound 688, 1-(5-(7-Fluoro-3-(4-(thiophen-3-yl)-1H-imidazo[4,5-c]pyridin-2-yl)-1H-indazol-5-yl)pyridin-3-yl)-N,N-dimethylmethanamine] it is 415 nM; for `CN(C)Cc1cncc(-c2ccc3[nH]nc(-c4nc5c(-c6cc(F)cc(CNS(C)(=O)=O)c6)nccc5[nH]4)c3c2F)c1` [Compound 1729, N-(3-(2-(5-(5-((Dimethylamino)methyl)pyridin-3-yl)-4-fluoro-1H-indazol-3-yl)-1H-imidazo[4,5-c]pyridin-4-yl)-5-fluorobenzyl)methanesulfonamide] it is 1100 nM.
To `O=C(Cc1ccccc1)Nc1cncc(-c2ccc3[nH]nc(-c4nc5c(-c6ccncc6)nccc5[nH]4)c3c2)c1` [Compound 114, 2-Phenyl-N-(5-(3-(4-(pyridin-4-yl)-1H-imidazo[4,5-c]pyridin-2-yl)-1H-indazol-5-yl)pyridin-3-yl)acetamide] belongs 36 nM; to `CN(C)Cc1cncc(-c2ccc3[nH]nc(-c4nc5c(-c6ccsc6)nccc5[nH]4)c3c2F)c1` [Compound 1573, 1-(5-(4-Fluoro-3-(4-(thiophen-3-yl)-1H-imidazo[4,5-c]pyridin-2-yl)-1H-indazol-5-yl)pyridin-3-yl)-N,N-dimethylmethanamine], 3060 nM.
The molecule `FC1(F)CCN(c2nccc3[nH]c(-c4n[nH]c5ccc(-c6cccnc6)cc45)nc23)CC1` [Compound 2273, 4-(4,4-Difluoropiperidin-1-yl)-2-(5-(pyridin-3-yl)-1H-indazol-3-yl)-1H-imidazo[4,5-c]pyridine] displayed a 50% inhibitory concentration (IC50) of 50 nM.
Regarding `CC(C)CC(=O)Nc1cncc(-c2ccc3[nH]nc(-c4nc5c(-c6cc(F)cc(OCCN(C)C)c6)nccc5[nH]4)c3c2)c1` [Compound 2076, N-(5-(3-(4-(3-(2-(Dimethylamino)ethoxy)-5-fluorophenyl)-1H-imidazo[4,5-c]pyridin-2-yl)-1H-indazol-5-yl)pyridin-3-yl)-3-methylbutanamide], the concentration for half-maximal inhibition (IC50) amounted to 370 nM.
In turn, `CN1CCN(c2nccc3[nH]c(-c4n[nH]c5ccc(-c6cncc(F)c6)cc45)nc23)CC1` [Compound 2276, 2-(5-(5-Fluoropyridin-3-yl)-1H-indazol-3-yl)-4-(4-methylpiperazin-1-yl)-1H-imidazo[4,5-c]pyridine] returned an IC50 of 439 nM.
`Fc1cccc(-c2nccc3[nH]c(-c4n[nH]c5ccc(-c6cncc(OCc7ccccc7)c6)cc45)nc23)c1` [Compound 1782, 2-(5-(5-(Benzyloxy)pyridin-3-yl)-1H-indazol-3-yl)-4-(3-fluorophenyl)-1H-imidazo[4,5-c]pyridine] came in with an IC50 of 575 nM.
The figure for `CC(C)Nc1cncc(-c2ccc3[nH]nc(-c4nc5c(N6CCCCC6)nccc5[nH]4)c3c2)c1` [Compound 168, N-Isopropyl-5-(3-(4-(piperidin-1-yl)-1H-imidazo[4,5-c]pyridin-2-yl)-1H-indazol-5-yl)pyridin-3-amine] is 88.1 nM.

These data come from patent US10081631B2, “2-(1H-indazol-3-yl)-1H-imidazo[4,5-C]pyridine and therapeutic uses thereof” (Samumed, LLC, priority 2014, dated 2018).
